The molecules below were run against T1, N-terminally GST-tagged human full length recombinant Mps-1 kinase (Homo sapiens, UniProt P33981) (assay: Mps-1 kinase assay (TR-FRET)). Conditions: Mps1 IC50 [nM], 10 μM ATP, 1 μM peptide substrate, 60 min at 22° C.
T1 construct: N-terminally GST-tagged human full length recombinant Mps-1 kinase; purchased Invitrogen, Karslruhe, Germany PV4071
T1 sequence (P33981 1-857): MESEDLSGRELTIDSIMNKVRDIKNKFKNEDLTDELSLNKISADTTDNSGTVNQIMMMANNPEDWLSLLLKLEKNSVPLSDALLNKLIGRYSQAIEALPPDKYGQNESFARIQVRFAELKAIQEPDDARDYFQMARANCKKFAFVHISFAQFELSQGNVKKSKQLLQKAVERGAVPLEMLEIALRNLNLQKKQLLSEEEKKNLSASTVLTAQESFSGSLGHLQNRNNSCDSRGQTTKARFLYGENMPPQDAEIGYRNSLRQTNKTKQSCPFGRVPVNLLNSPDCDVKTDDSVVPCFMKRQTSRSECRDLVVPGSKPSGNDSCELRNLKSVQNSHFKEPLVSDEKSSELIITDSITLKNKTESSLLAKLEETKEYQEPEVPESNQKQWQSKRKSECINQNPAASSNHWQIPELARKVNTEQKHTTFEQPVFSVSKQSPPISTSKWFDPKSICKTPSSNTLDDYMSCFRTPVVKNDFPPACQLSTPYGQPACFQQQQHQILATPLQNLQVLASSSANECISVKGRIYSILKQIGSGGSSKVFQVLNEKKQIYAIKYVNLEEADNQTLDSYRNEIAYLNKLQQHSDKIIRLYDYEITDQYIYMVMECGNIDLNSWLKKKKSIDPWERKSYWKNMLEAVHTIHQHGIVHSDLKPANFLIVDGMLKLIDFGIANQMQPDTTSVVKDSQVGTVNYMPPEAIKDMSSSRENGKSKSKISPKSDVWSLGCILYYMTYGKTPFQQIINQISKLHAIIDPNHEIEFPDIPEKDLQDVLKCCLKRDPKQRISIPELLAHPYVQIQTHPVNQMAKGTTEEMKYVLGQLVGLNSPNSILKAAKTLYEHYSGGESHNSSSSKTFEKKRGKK
Type: biochemical
How it was run: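 TR-FRET signal between a Europium anti-phospho-Ser/Thr antibody and streptavidin-XLent reported phosphorylation of a biotinylated peptide by GST-tagged full-length Mps-1. Enzyme was near 1 nM final, chosen per lot for linearity.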

IC50 [nM] | Structure (SMILES)
0.3 | Cc1cc(-c2cnc3c(NCCc4nnn[nH]4)cc(Oc4cccc(F)c4)nn23)ccc1C(=O)NC1CC1 [Example 511, N-cyclopropyl-4-[6-(3-fluoro-phenoxy)-8-{[2-(1H-tetrazol-5-yl)ethyl]amino}imidazo[1,2-b]pyridazin-3-yl]-2-methyl-benzamide]
0.4 | Cc1cc(-c2cnc3c(NCC4CCSCC4)cc(Oc4cccc(F)c4F)nn23)ccc1C(=O)NC1CC1 [Example 293, N-cyclopropyl-4-{6-(2,3-difluorophenoxy)-8-[(tetrahydro-2H-thiopyran-4-ylmethyl)amino]imidazo[1,2-b]pyridazin-3-yl}-2-methylbenzamide]
0.1 | CC(=O)NCCCNc1cc(Oc2cccc(F)c2)nn2c(-c3ccc(C(=O)NC4CC4)c(C)c3)cnc12 [Example 509, 4-[8-{[3-(acetylamino)propyl]amino}-6-(3-fluorophenoxy)imidazo[1,2-b]pyridazin-3-yl]-N-cyclopropyl-2-methyl-benzamide]
0.5 | Cc1cc(-c2cnc3c(NCC(C)(C)O)cc(Oc4ccc(F)c(Cl)c4)nn23)ccc1C(=O)NC1CC1 [Example 91, 4-{6-(3-Chloro-4-fluorophenoxy)-8-[(2-hydroxy-2-methylpropyl)amino]imidazo[1,2-b]pyridazin-3-yl}-N-cyclopropyl-2-methylbenzamide]
45.7 | Cc1cc(-c2cnc3c(NCC(C)(C)O)cc(Sc4nncn4C)nn23)ccc1C(=O)NC1CC1 [Example 413, N-cyclopropyl-4-{8-[(2-hydroxy-2-methylpropyl)amino]-6-[(4-methyl-4H-1,2,4-triazol-3-yl)sulfanyl]imidazo[1,2-b]pyridazin-3-yl}-2-methylbenzamide]
14.8 | CNc1ccccc1Oc1cc(NC)c2ncc(-c3ccc(C(=O)NC4CC4)c(C)c3)n2n1 [Example 531, N-cyclopropyl-2-methyl-4-{8-(methylamino)-6-[2-(methylamino)phenoxy]imidazo[1,2-b]pyridazin-3-yl} benzamide]
0.6 | Cc1cc(-c2cnc3c(NCCC(F)(F)F)cc(Nc4cccc(C(C)C)c4)nn23)ccc1C(=O)NC1CC1 [Example 433, N-cyclopropyl-2-methyl-4-(6-{[3-(propan-2-yl)phenyl]amino}-8-[(3,3,3-trifluoropropyl)amino]imidazo[1,2-b]pyridazin-3-yl)benzamide]
0.8 | Cc1cc(C)cc(Oc2cc(NCC(C)(C)O)c3ncc(-c4ccc(C(=O)NC5CC5)c(C)c4)n3n2)c1 [Example 96, N-cyclopropyl-4-{6-(3,5-dimethylphenoxy)-8-[(2-hydroxy-2-methylpropyl)amino]imidazo[1,2-b]pyridazin-3-yl}-2-methylbenzamide]
< 1 | CNC(=O)c1ccc(-c2cnc3c(NCC(F)F)cc(Oc4ccc(OC)cc4F)nn23)cc1C [Example 580, 4-{8-[(2,2-difluoroethyl)amino]-6-(2-fluoro-4-meth-oxyphenoxy)imidazo[1,2-b]pyridazin-3-yl}-N,2-dimethylbenzamide]
0.3 | Cc1ccc(Cc2cc(NCCC(F)(F)F)c3ncc(-c4ccc(C(=O)NC5CC5)c(C)c4)n3n2)cc1F [Example 484, N-cyclopropyl-4-{6-(3-fluoro-4-methylbenzyl)-8-[(3,3,3-tri-fluoropropyl)amino]imidazo [1,2-b]pyridazin-3-yl}-2-methylbenzamide]
0.8 | CNc1ccccc1Oc1cc(NCCN2CCOCC2)c2ncc(-c3ccc(C(=O)NC4CC4)c(C)c3)n2n1 [Example 538, N-cyclopropyl-2-methyl-4-(6-[2-(methylamino)phenoxy]-8-{[2-(morpholin-4-yl)ethyl]amino}imidazo[1,2-b]pyridazin-3-yl)benzamide]
44.4 | C/C=C(\C)c1cc(NCC(C)(C)O)c2ncc(-c3ccc(C(=O)NC4CC4)cc3OC)n2n1 [Example 72, 4-{6-[(2E)-But-2-en-2-yl]-8-[(2-hydroxy-2-methylpropyl)amino]imidazo[1,2-b]pyridazin-3-yl}-N-cyclopropyl-3-methoxybenzamide]
2.6 | OCc1ccccc1-c1cc(NCCC(F)(F)F)c2ncc(-c3ccc(C(=S)NC4CC4)cc3)n2n1 [Example 44, N-cyclopropyl-4-{6-[2-(hydroxymethyl)phenyl]-8-[(3,3,3-trifluoropropyl)amino]imidazo[1,2-b]pyridazin-3-yl}benzenecarbothioamide]
7.5 | Cc1cc(-c2cnc3c(NCCC(F)(F)F)cc(Oc4cccc5ccc(=O)[nH]c45)nn23)ccc1C(=O)NC1CC1 [Example 468, N-cyclopropyl-2-methyl-4-{6-[(2-oxo-1,2-dihydro-quinolin-8-yl)oxy]-8-[(3,3,3-trifluoropropyl)amino]imidazo[1,2-b]pyridazin-3-yl} benzamide]
3.8 | COc1ccccc1Sc1cc(NCC(C)(C)O)c2ncc(-c3ccc(C(=O)NC4CC4)c(C)c3)n2n1 [Example 73B, N-cyclopropyl-4-{8-[(2-hydroxy-2-methylpropyl)amino]-6-[(2-methoxyphenyl)sulfanyl]imidazo[1,2-b]pyridazin-3-yl}-2-methylbenzamide]
0.2 | CNC(=O)N(C)CCCNc1cc(Oc2cccc(F)c2)nn2c(-c3ccc(C(=O)NC4CC4)c(C)c3)cnc12 [Example 503, N-cyclopropyl-4-[6-(3-fluoro-phenoxy)-8-({3-[methyl(methyl-carbamoyl)amino]propyl}amino)imidazo[1,2-b]pyridazin-3-yl]-2-methylbenzamide]
7.1 | C=Cc1cc(NCCC(F)(F)F)c2ncc(-c3ccc(C(=O)NC4CC4)c(C)c3)n2n1 [Example 41, N-cyclopropyl-2-methyl-4-{8-[(3,3,3-trifluoropropyl)amino]-6-vinylimidazo[1,2-b]pyridazin-3-yl}benzamide]
7 | CC(C)CNc1cc(-c2cnc3ccccc3c2)nn2c(-c3ccc(C(=O)NC4CC4)cc3)cnc12 [Example 108, N-cyclopropyl-4-{8-[(2-methylpropyl)amino]-6-(quinolin-3-yl)imidazo[1,2-b]pyridazin-3-yl} benzamide]
0.1 | Cc1cc(-c2cnc3c(NCc4ccn(C)n4)cc(Oc4cccc(F)c4)nn23)ccc1C(=O)NC1CC1 [Example 488, N-cyclopropyl-4-[6-(3-fluoro-phenoxy)-8-{[(1-methyl-1H-pyrazol-3-yl)methyl]amino}imidazo[1,2-b]pyridazin-3-yl]-2-methylbenzamide]
2.2 | CNC(=O)c1ccc(-c2cc(NCC(C)C)c3ncc(-c4ccc(C(=O)NC5CC5)cc4)n3n2)cn1 [Example 149, 5-{3-[4-(Cyclopropylcarbamoyl)phenyl]-8-[(2-methylpropyl)amino]imidazo[1,2-b]pyridazin-6-yl}-N-methylpyridine-2-carboxamide]
0.1 | Cc1cc(-c2cnc3c(NCCN(C)C)cc(Oc4cccc(F)c4)nn23)ccc1C(=O)NC1CC1 [Example 487, N-cyclopropyl-4-[8-{[2-(dimethylamino)ethyl]amino}-6-(3-fluorophenoxy)imidazo [1,2-b]pyridazin-3-yl]-2-methylbenzamide]
0.4 | Cc1cc(F)cc(Sc2cc(NCC3CCSCC3)c3ncc(-c4ccc(C(=O)NC5CC5)c(C)c4)n3n2)c1 [Example 286, N-cyclopropyl-4-{6-[(3-fluoro-5-methylphenyl)sulfanyl]-8-[(tetrahydro-2H-thiopyran-4-ylmethyl)amino]imidazo[1,2-b]pyridazin-3-yl}-2-methylbenzamide]
9 | CCNC(=O)c1ccc(-c2cnc3c(NCCN4CCOCC4)cc(Oc4ccccc4)nn23)cc1C [Example 593, N-ethyl-2-methyl-4-(8-{[2-(morpholin-4-yl)ethyl]amino}-6-phenoxyimidazo[1,2-b]pyridazin-3-yl)benzamide]
0.1 | Cc1cc(-c2cnc3c(NCCS(C)(=O)=O)cc(Oc4cccc(F)c4)nn23)ccc1C(=O)NC1CC1 [Example 313, N-cyclopropyl-4-[6-(3-fluorophenoxy)-8-{[2-(methylsulfonyl)ethyl]amino}imidazo[1,2-b]pyridazin-3-yl]-2-methyl-benzamide]
3.7 | CC(C)CNc1cc(-c2ccc(NC(=O)N(C)C)cc2)nn2c(-c3ccc(C(=O)NC4CC4)cc3)cnc12 [Example 150, N-cyclopropyl-4-(6-{4-[(dimethylcarbamoyl)amino]phenyl}-8-[(2-methylpropyl)amino]imidazo[1,2-b]pyridazin-3-yl)benzamide]
3.2 | CNC(=O)c1ccc(-c2cnc3c(NCCOC)cc(Oc4ccccc4)nn23)cc1C [Example 587, 4-{8-[(2-methoxyethyl)amino]-6-phenoxyimidazo[1,2-b]pyridazin-3-yl}-N,2-dimethylbenzamide]

Reference: patent US9255100B2 (BAYER INTELLECTUAL PROPERTY GMBH, priority 2010, dated 2016)
